Measurements published in US20240174649A1, “CULLIN-RING E3 UBIQUITIN LIGASE 4 INHIBITOR COMPOUNDS AND METHODS OF THEIR USE” (ICAHN SCHOOL OF MEDICINE AT MOUNT SINAI, priority 2021, published 2024).

How the values were obtained:
ROC1-CUL1 = ROC1-CUL1 (Homo sapiens (Human), UniProt Q13616); assay: Cullin-32P-Ub elongation assay with ROC1-CUL1; assay type: biochemical; settings: as much as 150 μM
Nedd8-ROC1-CUL1 = Nedd8-ROC1-CUL1 (Homo sapiens (Human), UniProt Q13616); assay: Ub chain assembly measured by Coomassie stain; assay type: biochemical
Chain of Nedd8-ROC1-CUL1 (Q13616 whole entry): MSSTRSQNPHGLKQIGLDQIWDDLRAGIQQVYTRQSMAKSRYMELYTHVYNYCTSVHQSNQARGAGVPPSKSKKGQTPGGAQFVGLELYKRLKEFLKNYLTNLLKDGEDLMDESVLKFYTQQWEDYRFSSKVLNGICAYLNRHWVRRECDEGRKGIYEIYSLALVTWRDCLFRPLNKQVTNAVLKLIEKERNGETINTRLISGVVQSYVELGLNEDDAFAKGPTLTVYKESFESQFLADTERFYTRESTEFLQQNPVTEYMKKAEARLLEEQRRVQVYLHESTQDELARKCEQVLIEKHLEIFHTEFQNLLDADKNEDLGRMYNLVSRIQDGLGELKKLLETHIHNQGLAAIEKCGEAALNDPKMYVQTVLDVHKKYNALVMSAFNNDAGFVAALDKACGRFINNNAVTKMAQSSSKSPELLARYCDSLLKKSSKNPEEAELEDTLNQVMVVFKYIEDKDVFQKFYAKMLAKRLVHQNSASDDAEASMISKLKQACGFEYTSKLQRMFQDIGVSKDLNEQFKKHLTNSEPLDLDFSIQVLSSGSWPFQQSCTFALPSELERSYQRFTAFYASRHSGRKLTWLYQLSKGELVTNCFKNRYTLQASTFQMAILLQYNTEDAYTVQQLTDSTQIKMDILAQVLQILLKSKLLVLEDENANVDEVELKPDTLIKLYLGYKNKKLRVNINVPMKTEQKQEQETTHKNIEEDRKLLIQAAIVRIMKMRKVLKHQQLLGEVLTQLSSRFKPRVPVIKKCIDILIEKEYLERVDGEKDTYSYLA
Chain of Nedd8-ROC1-CUL1 (P62877 whole entry partner): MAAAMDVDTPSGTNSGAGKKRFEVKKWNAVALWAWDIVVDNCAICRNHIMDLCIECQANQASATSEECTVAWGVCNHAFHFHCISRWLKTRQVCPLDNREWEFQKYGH
Chain of Nedd8-ROC1-CUL1 (Q15843 1-76 partner): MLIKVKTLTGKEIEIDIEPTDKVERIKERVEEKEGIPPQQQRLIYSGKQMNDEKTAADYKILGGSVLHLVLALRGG
Description: (§1) Reaction mixture contained 2 mM ATP, 10 mM MgCl2, 0.01 μg/μl of GST-E1 (Ub), 0.01 μg/μl of Cdc34, 0.1 μg/μl of Nedd8-ROC1-CUL1 or Nedd8-ROC1-CUL4A, and 1 μg/μl of Ub. Where indicated, DMSO and compound were added. The reaction was incubated at 37° C. for 60 min. Following separation of reaction products by SDS-PAGE, proteins were visualized by Coomassie stain.

Nedd8-ROC1-CUL4A = Nedd8-ROC1-CUL4A (Homo sapiens (Human), UniProt Q13619); assay: Ub chain assembly measured by Coomassie stain; assay type: biochemical; settings: 10 μM
Chain of Nedd8-ROC1-CUL4A (Q13619 39-759 limits assumed): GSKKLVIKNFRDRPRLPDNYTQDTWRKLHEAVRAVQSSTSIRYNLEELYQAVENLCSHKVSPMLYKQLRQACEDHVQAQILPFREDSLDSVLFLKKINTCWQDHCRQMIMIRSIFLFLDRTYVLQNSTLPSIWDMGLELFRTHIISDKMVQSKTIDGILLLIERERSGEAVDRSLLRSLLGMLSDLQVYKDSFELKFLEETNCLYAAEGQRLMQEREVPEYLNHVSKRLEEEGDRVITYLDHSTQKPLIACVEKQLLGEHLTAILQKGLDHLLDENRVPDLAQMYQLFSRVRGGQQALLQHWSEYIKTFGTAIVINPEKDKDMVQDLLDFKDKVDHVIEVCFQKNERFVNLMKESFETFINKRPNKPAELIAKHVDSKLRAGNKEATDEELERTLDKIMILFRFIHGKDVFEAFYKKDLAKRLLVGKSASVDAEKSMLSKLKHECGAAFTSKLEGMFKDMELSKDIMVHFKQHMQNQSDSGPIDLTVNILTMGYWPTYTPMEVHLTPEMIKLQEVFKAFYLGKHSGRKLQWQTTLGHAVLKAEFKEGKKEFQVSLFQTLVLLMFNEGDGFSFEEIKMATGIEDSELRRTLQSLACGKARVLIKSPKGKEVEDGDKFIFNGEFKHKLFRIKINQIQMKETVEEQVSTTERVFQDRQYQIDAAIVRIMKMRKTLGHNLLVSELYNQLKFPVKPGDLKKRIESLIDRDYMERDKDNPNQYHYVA
Chain of Nedd8-ROC1-CUL4A (P62877 15-108 partner limits assumed): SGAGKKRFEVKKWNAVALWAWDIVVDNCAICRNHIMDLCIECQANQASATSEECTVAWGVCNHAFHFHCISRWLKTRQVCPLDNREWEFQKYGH
Chain of Nedd8-ROC1-CUL4A (Q15843 1-76 partner limits assumed): as the sequence (Q15843 1-76 partner) above
Description: as §1

ROC1-CUL3 = ROC1-CUL3 (Homo sapiens (Human), UniProt Q13618); assay: Gel-based di-Ub synthesis; assay type: biochemical; settings: up to 150 μM
Chain of ROC1-CUL3 (Q13618 whole entry): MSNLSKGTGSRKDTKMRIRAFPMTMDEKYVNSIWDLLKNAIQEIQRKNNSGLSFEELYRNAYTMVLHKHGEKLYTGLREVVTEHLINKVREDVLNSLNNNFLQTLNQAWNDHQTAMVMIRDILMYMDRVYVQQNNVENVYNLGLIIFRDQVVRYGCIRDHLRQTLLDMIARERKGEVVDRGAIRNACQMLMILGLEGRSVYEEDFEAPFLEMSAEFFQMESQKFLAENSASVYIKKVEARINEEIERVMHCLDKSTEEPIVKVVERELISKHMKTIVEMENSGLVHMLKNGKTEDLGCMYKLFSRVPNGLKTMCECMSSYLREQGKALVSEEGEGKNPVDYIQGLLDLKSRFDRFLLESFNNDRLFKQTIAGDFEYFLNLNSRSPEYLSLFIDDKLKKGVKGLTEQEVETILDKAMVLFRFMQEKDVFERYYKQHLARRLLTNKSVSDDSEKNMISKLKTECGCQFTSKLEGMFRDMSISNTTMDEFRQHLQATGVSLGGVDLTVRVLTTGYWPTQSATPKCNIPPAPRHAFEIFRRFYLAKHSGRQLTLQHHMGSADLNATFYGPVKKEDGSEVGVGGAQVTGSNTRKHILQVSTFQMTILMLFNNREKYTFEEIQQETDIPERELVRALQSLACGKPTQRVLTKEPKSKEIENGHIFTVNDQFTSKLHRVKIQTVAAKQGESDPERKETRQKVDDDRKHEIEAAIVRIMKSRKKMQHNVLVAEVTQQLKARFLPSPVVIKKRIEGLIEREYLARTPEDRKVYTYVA
Chain of ROC1-CUL3 (P62877 whole entry partner): as the sequence (P62877 whole entry partner) above

E3 (CUL4) = E3 (CUL4) (Homo sapiens (Human), UniProt Q13619); assay: E3 (CUL4) inhibition (Table 1); assay type: biochemical
Chain of E3 (CUL4) (Q13619 whole entry): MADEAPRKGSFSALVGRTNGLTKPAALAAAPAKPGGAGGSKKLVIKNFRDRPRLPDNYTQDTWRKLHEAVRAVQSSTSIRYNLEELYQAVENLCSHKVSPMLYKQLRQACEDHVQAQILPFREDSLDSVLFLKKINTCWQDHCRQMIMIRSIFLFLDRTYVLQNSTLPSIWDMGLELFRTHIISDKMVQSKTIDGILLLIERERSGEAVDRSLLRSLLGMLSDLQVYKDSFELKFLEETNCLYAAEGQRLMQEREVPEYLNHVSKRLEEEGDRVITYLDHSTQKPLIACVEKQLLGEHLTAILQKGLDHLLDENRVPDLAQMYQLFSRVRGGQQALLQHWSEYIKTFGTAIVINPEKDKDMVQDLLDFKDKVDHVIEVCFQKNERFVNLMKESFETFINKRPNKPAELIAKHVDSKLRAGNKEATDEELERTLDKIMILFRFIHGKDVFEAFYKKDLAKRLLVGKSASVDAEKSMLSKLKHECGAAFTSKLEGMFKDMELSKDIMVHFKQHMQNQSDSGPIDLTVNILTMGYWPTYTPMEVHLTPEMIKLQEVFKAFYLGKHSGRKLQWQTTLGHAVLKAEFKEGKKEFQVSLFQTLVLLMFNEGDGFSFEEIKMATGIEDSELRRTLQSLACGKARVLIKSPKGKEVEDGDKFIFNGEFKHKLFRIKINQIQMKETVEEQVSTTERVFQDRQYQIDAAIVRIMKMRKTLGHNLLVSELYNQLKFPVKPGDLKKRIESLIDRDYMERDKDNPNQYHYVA
Chain of E3 (CUL4) (P62877 whole entry partner): as the sequence (P62877 whole entry partner) above
Summary of the method: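 Two-step assay: Cdc34b-Ub thiol ester formation, then chase with ROC1-cullin mono-ubiquitination mix for 10 min at 37° C in 50 mM Tris-HCl pH 7.4, 0.5 mM DTT, 0.1 mg/ml BSA, 5 mM MgCl2, 2 mM ATP with compounds. 32P-Ub chain products resolved by SDS-PAGE and quantified by phospho-imaging.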

MV4-11 cells = assay: Cell viability assay (CellTiter-Glo); assay type: cell-based; settings: Homo sapiens; MV4-11, 48 hours
Description: The ability of #33-11 to induce apoptosis was measured by Annexin V flow cytometry (FIG. 1A). EC50/EC90 for each cell line are indicated. […] Mouse pancreatic cancer cell lines K8484 and DT8082 were isolated from the KPC mice (Olive et al., “Inhibition of Hedgehog Signaling Enhances Delivery of Chemotherapy in a Mouse Model of Pancreatic Cancer,” Science 324(5933):1457-1461 (2009), which is hereby incorporated by reference in its entirety), the rest (34 in total) are all human cancer cell lines. Washout: MV4-11 cells at 10^5 cells/ml were treated with compound at concentrations as indicated (FIG. 1C). At specified hours post compound treatment, the cells were washed once with fresh complete media without compound and allowed to grow for additional 48 hours followed by viability test as in FIG. 1B.
For cell viability assay, 10,000 cells (per well) were seeded in 96 well plates in 100 microliters of media and incubated overnight. Serial dilutions of compounds tested were then added to wells in triplicate. […] The luminescence of each well was then read using a Synergy multi-mode plate reader (BioTek). For determining relative luminescence, the background (average reading of wells containing only media and CellTiter-Glo reagent, no cells) was first subtracted from the reading of each sample. […] Then EC50 was determined using the four parameter logistics regression standard curve.

Chain of ROC1-CUL1 (Q13616 whole entry): as the sequence (Q13616 whole entry) above
Chain of ROC1-CUL1 (P62877 whole entry partner): as the sequence (P62877 whole entry partner) above

SMILES	effect on levels of CUL1-32P-Ub (ROC1-CUL1)	effect on Ub chain assembly (Nedd8-ROC1-CUL1; 1 mM)	effect on Ub chain assembly (Nedd8-ROC1-CUL1; 10 or 100 μM)	effect on Ub chain assembly (Nedd8-ROC1-CUL4A)	level of di-Ub product (ROC1-CUL3)	EC50 (E3 (CUL4)) [µM]	EC50 (MV4-11 cells) [µM]
O=c1c(-c2cnn(-c3ccccc3)c2)c(C(F)(F)F)oc2c(O)c(O)ccc12 [#33-11, 7,8-dihydroxy-3-(1-phenyl-1H-pyrazol-4-yl)-2-(trifluoromethyl)-4H-chromen-4-one]	little effects	blocked the utilization of Ub	little effect	block the utilization of free Ub	remained almost unchanged	–	–
O=c1c(-c2cnn(-c3ccc(Cl)cc3)c2)c(C(F)(F)F)oc2c(O)c(O)ccc12 [KH-4-43, 3-(1-(4-chlorophenyl)-1H-pyrazol-4-yl)-7,8-dihydroxy-2-(trifluoromethyl)-4H-chromen-4-one]	–	–	–	–	–	10	3
